The target in the first assay is human TrkA (Homo sapiens (Human), UniProt P04629). The assay is described as follows: Human TrkA inhibition assay (Test Example 2). It counts as biochemical. As to conditions: Table 152, human TrkA inhibition; read-out: IC50_nM. Put shortly:
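Mobility-shift readout of phosphorylated versus unphosphorylated fluorescent peptide gave conversion ratio, normalized to DMSO and no-enzyme wells; IC50 by logistic fit of 10- or 15-point 3-fold dilutions. Conditions: 1 nmol/L enzyme, 15 min compound preincubation, then 500 μmol/L ATP plus 1.5 μmol/L peptide, 120 min, 37 °C.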
human TrkA, sequence (P04629 440-796): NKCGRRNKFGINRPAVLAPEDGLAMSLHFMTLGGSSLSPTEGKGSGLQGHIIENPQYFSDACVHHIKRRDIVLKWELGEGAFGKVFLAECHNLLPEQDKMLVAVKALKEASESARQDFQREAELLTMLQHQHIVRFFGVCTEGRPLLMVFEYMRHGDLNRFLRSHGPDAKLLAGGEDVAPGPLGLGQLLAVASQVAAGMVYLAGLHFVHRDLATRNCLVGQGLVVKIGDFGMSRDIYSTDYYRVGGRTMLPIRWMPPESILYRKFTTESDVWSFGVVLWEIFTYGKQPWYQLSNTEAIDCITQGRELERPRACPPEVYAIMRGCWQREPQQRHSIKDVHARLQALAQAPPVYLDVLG
For `COCCC1C[C@@H](NC(=O)Nc2c(C)c(-c3ccc(=O)[nH]c3)nn2-c2ccccc2)[C@H](c2ccccc2)O1` (stereo partly drawn) [Compound I-18], the IC50 is under 0.1 µM. Take `COCCC1C[C@@H](NC(=O)Nc2c(C)c(C3=CCN(C(=O)OC(C)(C)C)CC3)nn2-c2ccccc2)[C@H](c2ccccc2)O1` (stereo partly drawn) [Compound I-20]: the IC50 was under 0.1 µM. Consider `COCCC1C[C@@H](NC(=O)Nc2c(C)c(C3=CCNCC3)nn2-c2ccccc2)[C@H](c2ccccc2)O1` (stereo partly drawn) [Compound I-21], for which the IC50 is under 0.1 µM. Same read-out and setting: the figure for `COCC[C@H]1C[C@H](NC(=O)Nc2c(C)c(-c3cnn(C)c3)nn2-c2ccccc2)[C@@H](c2ccc(F)c(F)c2)O1` [Compound I-24] is over 1 µM; for `COCCN1C[C@H](NC(=O)Nc2c(C)c(C3=CCN(C(C)=O)CC3)nn2-c2ccccc2)[C@@H](c2ccc(F)c(F)c2)O1` [Compound I-38] it is over 1 µM.

Staying with this assay, now noted: Table 153, human TrkA inhibition; read-out: IC50.
Turning to `COCC[C@H]1C[C@H](NC(=O)Nc2c(C)c(C3=CCN(C(=O)CO)CC3)nn2-c2ccccc2)[C@@H](c2ccc(F)c(F)c2)O1` [Compound I-58], the IC50 was 0.1 to 1 µM. Take `COCC[C@@H]1C[C@@H](NC(=O)Nc2c(C)c(C3=CCN(C(=O)CO)CC3)nn2-c2ccccc2)[C@H](c2ccc(F)c(F)c2)O1` [Compound I-59]: the IC50 was under 0.1 µM. Same read-out and setting: the figure for `COCCN1C[C@H](NC(=O)Nc2c(C)c(OCC(C)(C)O)nn2-c2ccccc2)[C@@H](c2cnc(F)c(F)c2)O1` [Compound I-83] is over 1 µM. The same measure, in the same setting: the figure for `COCCC1C[C@@H](NC(=O)Nc2c(C)c(-c3cnc4c(cnn4C)c3)nn2-c2ccccc2)[C@H](c2ccccc2)O1` (stereo partly drawn) [Compound I-98] is under 0.1 µM; for `COCCN1C[C@@H](NC(=O)Nc2c(C)c(-c3cnc(OC)c(C(=O)N[C@@H]4CCOC4)c3)nn2-c2ccccc2)[C@H](c2ccnc(F)c2)O1` [Compound I-113] it is under 0.1 µM. Same read-out and setting: to `COCCN1C[C@@H](NC(=O)Nc2c(C)c(-c3cnc4c(c3)c(CO)nn4C)nn2-c2ccccc2)[C@H](c2cnc(F)c(F)c2)O1` [Compound I-128] belongs under 0.1 µM.

Take `CCOc1ncc(-c2nn(-c3ccccc3)c(NC(=O)N[C@H]3CN(CCOC)O[C@@H]3c3ccnc(F)c3)c2C)cn1` [Compound I-130]: the IC50 was over 1 µM. On the same count and under the same terms, the figure for `COCCN1C[C@@H](NC(=O)Nc2c(C)c(-c3cnc(N(C)C)nc3)nn2-c2ccccc2)[C@H](c2cnc(F)c(F)c2)O1` [Compound I-133] is under 0.1 µM; for `COCCN1C[C@@H](NC(=O)Nc2c(C)c(-c3cnc(C(=O)N[C@@H]4CCOC4)c(C)c3)nn2-c2ccccc2)[C@H](c2ccnc(F)c2)O1` [Compound I-172] it is under 0.1 µM.

Staying with this assay, now noted: Table 154, human TrkA inhibition; read-out: IC50.
Consider `COCCN1C[C@@H](NC(=O)Nc2c(C)c(-c3cnc(OC)c(C(N)=O)c3)nn2-c2ccccc2)[C@H](c2cnc(F)c(F)c2)O1` [Compound I-180], for which the IC50 was under 0.1 µM. As for `COCCN1C[C@@H](NC(=O)Nc2c(C)c(-c3ccc(N=S(C)(C)=O)nc3)nn2-c2ccccc2)[C@H](c2ccc(F)c(F)c2)O1` [Compound I-186], the IC50 is under 0.1 µM. As to `CNC(=O)c1cc(-c2nn(-c3ccccc3)c(NC(=O)N[C@@H]3CN(CCOC)O[C@H]3c3ccnc(F)c3)c2C)cnc1OC` [Compound I-191], the IC50 is under 0.1 µM.

In the case of `COCCN1C[C@@H](NC(=O)Nc2c(C)c(-c3cnc(OC)c(C(=O)N[C@@H]4CCOC4)c3)nn2-c2ccccc2)[C@H](c2ccnc(F)c2)O1` [Compound I-192], the IC50 was under 0.1 µM.

Consider `COCCN1C[C@@H](NC(=O)Nc2c(C)c(-c3ccnc(C(=O)OC)c3)nn2-c2ccccc2)[C@H](c2cnc(F)c(F)c2)O1` [Compound I-197], for which the IC50 is under 0.1 µM. On the same count and under the same terms, the figure for `COCCN1C[C@@H](NC(=O)Nc2c(C)c(-c3cnc(N4CC(O)C4)nc3)nn2-c2ccccc2)[C@H](c2ccc(F)c(F)c2)O1` [Compound I-209] is under 0.1 µM. The same measure, in the same setting: the figure for `COCCN1C[C@@H](NC(=O)Nc2c(C)c(-c3cnc(N4CC(O)C4)nc3)nn2-c2ccccc2)[C@H](c2cnc(F)c(F)c2)O1` [Compound I-210] is under 0.1 µM; for `COCCN1C[C@@H](NC(=O)Nc2c(C)c(-c3ccnc(C(=O)O)c3)nn2-c2ccccc2)[C@H](c2cnc(F)c(F)c2)O1` [Compound I-213] it is under 0.1 µM. With `COCCN1C[C@@H](NC(=O)Nc2c(C)c(-c3cnc4c(c3)c(=O)n(C)n4C)nn2-c2ccccc2)[C@H](c2ccc(F)c(F)c2)O1` [Compound I-216], the IC50 is under 0.1 µM.

On to `COCCN1C[C@@H](NC(=O)Nc2c(C)c(-c3cnc4c(c3)[nH]c(=O)n4C)nn2-c2ccccc2)[C@H](c2ccc(F)c(F)c2)O1` [Compound I-218], for which the IC50 is under 0.1 µM. In the case of `COCCN1C[C@@H](NC(=O)Nc2c(C)c(-c3cnc4c(c3)nc(C(N)=O)n4C)nn2-c2ccccc2)[C@H](c2ccc(F)c(F)c2)O1` [Compound I-221], the IC50 is under 0.1 µM. In the case of `COCCN1C[C@@H](NC(=O)Nc2c(C)c(-c3cnc4c(c3)nc(C#N)n4C)nn2-c2ccccc2)[C@H](c2ccc(F)c(F)c2)O1` [Compound I-222], the IC50 was under 0.1 µM. Still for that read-out and setting: the figure for `COCCN1C[C@@H](NC(=O)Nc2c(C)c(-c3ccc(N=S(C)(C)=O)cc3)nn2-c2ccccc2)[C@H](c2ccc(F)c(F)c2)O1` [Compound I-227] is under 0.1 µM; for `COCCN1C[C@@H](NC(=O)Nc2c(C)c(-c3cnc4c(ccc(=O)n4C)c3)nn2-c2ccccc2)[C@H](c2ccc(F)c(F)c2)O1` [Compound I-229] it is under 0.1 µM. On the same count and under the same terms, to `COCCN1C[C@@H](NC(=O)Nc2c(C)c(-c3ccnc(C(=O)NO)c3)nn2-c2ccccc2)[C@H](c2cnc(F)c(F)c2)O1` [Compound I-231] belongs under 0.1 µM; to `COCC[C@@H]1C[C@@H](NC(=O)Nc2c(C)c(-c3cnn(C)c3)nn2-c2ccccc2)[C@H](c2ccnc(F)c2)O1` [Compound I-235], under 0.1 µM. Still for that read-out and setting: the figure for `COCC[C@@H]1C[C@@H](NC(=O)Nc2c(C)c(-c3cnc(Cl)nc3)nn2-c2ccccc2)[C@H](c2ccnc(F)c2)O1` [Compound I-248] is under 0.1 µM; for `COCC[C@@H]1C[C@@H](NC(=O)Nc2c(C)c(-c3cc(C(=O)OC)c(=O)n(C)c3)nn2-c2ccccc2)[C@H](c2ccnc(F)c2)O1` [Compound I-251] it is under 0.1 µM. On to `COCCN1C[C@@H](NC(=O)Nc2c(C)c(-c3cnc(C(N)=O)c(C)c3)nn2-c2ccccc2)[C@H](c2cnc(F)c(F)c2)O1` [Compound I-252], for which the IC50 was under 0.1 µM.

With `COCCN1C[C@@H](NC(=O)Nc2c(C)c(-c3cnc(C(=O)NC4CC4)c(C)c3)nn2-c2ccccc2)[C@H](c2cnc(F)c(F)c2)O1` [Compound I-254], the IC50 is under 0.1 µM.

For `COCCN1C[C@H](NC(=O)Nc2c(C)c(-c3cnc(OC)nc3)nn2-c2ccccc2)[C@@H](c2cnc(F)c(F)c2)O1` [Compound I-263], the IC50 was in the range of 0.1 to 1 µM. Consider `CNC(=O)c1cc(-c2nn(-c3ccccc3)c(NC(=O)N[C@@H]3C[C@@H](CCOC)O[C@H]3c3ccnc(F)c3)c2C)cn(C)c1=O` [Compound I-271], for which the IC50 is under 0.1 µM.

As for `COCC[C@@H]1C[C@@H](NC(=O)Nc2c(C)c(-c3cc(C(=O)NC4CCOCC4)c(=O)n(C)c3)nn2-c2ccccc2)[C@H](c2ccnc(F)c2)O1` [Compound I-272], the IC50 was under 0.1 µM.

Staying with this assay, now noted: human TrkA 1 nmol/L, ATP 500 μmol/L, 120 min at 37° C.; read-out: IC50 values (TrkA phosphorylation inhibition).
Regarding `COCC[C@@H]1C[C@@H](NC(=O)Nc2c(C)c(-c3cnn(C)c3)nn2-c2ccccc2)[C@H](c2ccc(F)c(F)c2)O1` [Compound I-25], the IC50 turned out to be 0.0029 µM.

Regarding `COCCN1C[C@@H](NC(=O)Nc2c(C)c(C3=CCN(C(C)=O)CC3)nn2-c2ccccc2)[C@H](c2ccc(F)c(F)c2)O1` [Compound I-39], the IC50 came out at 0.00048 µM.

As for `COCCN1C[C@@H](NC(=O)Nc2c(C)c(-c3cnc4c(cnn4C)c3)nn2-c2ccccc2)[C@H](c2ccnc(F)c2)O1` [Compound I-65], the IC50 amounted to 0.00092 µM. Still for that read-out and setting: the figure for `COCCN1C[C@@H](NC(=O)Nc2c(C)c(OCC(C)(C)O)nn2-c2ccccc2)[C@H](c2cnc(F)c(F)c2)O1` [Compound I-82] is 0.022 µM; for `CNc1ncc(-c2nn(-c3ccccc3)c(NC(=O)N[C@@H]3CN(CCOC)O[C@H]3c3cnc(F)c(F)c3)c2C)cn1` [Compound I-135] it is 0.00052 µM; for `COCCN1C[C@@H](NC(=O)Nc2c(C)c(-c3cnc(OC)nc3)nn2-c2ccccc2)[C@H](c2cnc(F)c(F)c2)O1` [Compound I-211] it is 0.0015 µM. On the same count and under the same terms, the figure for `COCCN1C[C@@H](NC(=O)Nc2c(C)c(-c3ccnc(C(=O)NOC)c3)nn2-c2ccccc2)[C@H](c2cnc(F)c(F)c2)O1` [Compound I-233] is 0.0015 µM; for `COCC[C@@H]1C[C@@H](NC(=O)Nc2c(C)c(-c3cnc4c(cnn4C)c3)nn2-c2ccccc2)[C@H](c2ccnc(F)c2)O1` [Compound I-236] it is 0.0014 µM; for `COCC[C@@H]1C[C@@H](NC(=O)Nc2c(C)c(-c3cnc(C)nc3)nn2-c2ccccc2)[C@H](c2ccnc(F)c2)O1` [Compound I-237] it is 0.0081 µM. As for `COCCN1C[C@@H](NC(=O)Nc2c(C)c(-c3cnn(C)c3)nn2-c2ccccc2)[C@H](c2cnc(F)c(F)c2)O1` [Compound I-245], the IC50 was found to be 0.003 µM. On the same count and under the same terms, to `CNC(=O)c1ncc(-c2nn(-c3ccccc3)c(NC(=O)N[C@@H]3CN(CCOC)O[C@H]3c3cnc(F)c(F)c3)c2C)cc1C` [Compound I-253] belongs 0.0013 µM; to `COCCN1C[C@@H](NC(=O)Nc2c(C)c(-c3cnc4c(c3)[nH]c(=O)n4C)nn2-c2ccccc2)[C@H](c2cnc(F)c(F)c2)O1` [Compound I-258], 0.00048 µM; to `COCCN1C[C@@H](NC(=O)Nc2c(C)c(-c3cnc(N=S(C)(C)=O)nc3)nn2-c2ccccc2)[C@H](c2ccc(F)c(F)c2)O1` [Compound I-268], 0.00055 µM.

With `COCC[C@@H]1C[C@@H](NC(=O)Nc2c(C)c(-c3cnc(OC)nc3)nn2-c2ccccc2)[C@H](c2ccnc(F)c2)O1` [Compound I-273], the IC50 amounted to 0.0047 µM.

(Values after US10640495B2, “Heterocycle derivatives having TrkA inhibitory activity” (Shionogi & Co., Ltd., priority 2015, dated 2020).)
